Measurements reported in patent US9145415B2, “Nitrogen-containing heterocyclic compound or salt thereof” (FUJIFILM Corporation, priority 2012, dated 2015).
Read-outs that look alike come from different tables or passages of the source.

What was measured:
[1] = target: T1, human FLT3 protein (FLT3 (WT)) (Homo sapiens, UniProt P36888); assay: FLT3 inhibition test (FLT3 enzyme inhibition, time-resolved fluorescence of substrate peptide phosphorylation); assay type: biochemical; conditions: read-out: FLT3 (WT) enzyme inhibition activity
T1 construct: human FLT3 protein (intracellular region, 564 to 993 aa); GST; purchased Carna Biosciences; host or cells: baculovirus expression system
T1 sequence (P36888 564-993): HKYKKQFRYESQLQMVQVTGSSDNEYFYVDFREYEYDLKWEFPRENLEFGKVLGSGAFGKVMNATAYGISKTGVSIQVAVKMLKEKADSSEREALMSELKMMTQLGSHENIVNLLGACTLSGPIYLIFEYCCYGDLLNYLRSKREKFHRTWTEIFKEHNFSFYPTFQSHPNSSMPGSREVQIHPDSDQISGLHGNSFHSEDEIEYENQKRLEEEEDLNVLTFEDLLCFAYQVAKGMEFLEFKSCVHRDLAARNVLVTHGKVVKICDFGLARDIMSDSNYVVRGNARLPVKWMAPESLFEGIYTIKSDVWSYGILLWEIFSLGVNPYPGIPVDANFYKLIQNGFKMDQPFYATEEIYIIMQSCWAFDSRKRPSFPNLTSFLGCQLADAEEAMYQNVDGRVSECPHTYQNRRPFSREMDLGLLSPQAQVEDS
Method in brief: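 Substrate peptide phosphorylation detected by time-resolved fluorescence after a 30 min kinase reaction at 25° C with 50 μM ATP (final). Beforehand, compound and FLT3 (WT, 1.2 μg) stood 15 min at 25° C in HEPES buffer pH 7.5 containing MgCl2, NaCl, BSA and DTT.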

[2] = tested on: MV4-11 cells; assay: Leukemia cell proliferation inhibition test (ATPlite), MV4-11; assay type: cell-based; conditions: Homo sapiens, read-out: MV4-11 cell proliferation inhibition effect
Method in brief: (§1)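 Molm-13 or MV4-11 cells in RPMI with 10% FBS and pen/strep, seeded at 10,000 cells per well, were exposed to serially diluted compound for 72 hours at 37° C, 5% CO2. Total cellular ATP was read by luciferase luminescence. GI50 came from sigmoid fits against the 0.1% DMSO control, in duplicate.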

[3] = tested on: Molm-13 cells; assay: Leukemia cell proliferation inhibition test (ATPlite), Molm-13; assay type: cell-based; conditions: Homo sapiens, read-out: MOLM13 cell proliferation inhibition effect
Method in brief: as §1

[4] = GST-fused human FLT3 (564 to 993 aa), ATP 50 μM
[5] = MV4-11, 72 h, MV4-11, 72 hours culture, ATPlite, GI50 per method
[6] = MOLM-13, 72 h, Molm-13, 72 hours culture, ATPlite, GI50 per method

SMILES | IC50 [1, 4] [nM] | IC50 [2, 5] [nM] | IC50 [3, 6] [nM] | IC50 ([1]; FLT3 (WT)) [nM] | IC50 ([2]; MV4-11, MV4-11 cell) [nM] | IC50 ([3]; MOLM-13, MOLM13 cell) [nM]
C[C@@H](C(=O)NCCCC#Cc1cnc(Nc2ccc3[nH]ncc3c2)nc1NC1CC1)N(C)C(=O)/C=C/CN(C)C [Compound 10-72] | < 10 | < 10 | < 10 | – | – | –
CCCNc1nc(Nc2ccc3nccnc3c2)ncc1C#CCCCNC(=O)[C@H](C)N(C)C(=O)/C=C/CN(C)C [Compound 22-4] | – | – | – | < 10 | < 10 | < 10
CCCNc1nc(Nc2ccnc(F)c2)ncc1C#CCCCNC(=O)[C@H](C)N(C)C(=O)/C=C/CN(C)C [Compound 9-13, (S,E)-4-(Dimethylamino)-N-(1-((5-(2-((2-fluoropyridin-4-yl)amino)-4-(propylamino)pyrimidin-5-yl)-4-pentyn-1-yl)amino)-1-oxopropan-2-yl)-N-methyl-2-butenamide] | < 10 | < 10 | < 10 | – | – | –
CCCNc1nc(NCCc2ccncc2)ncc1C(=O)NCCC(CC)NC(=O)CNC(=O)/C=C/CN(C)C (stereo not drawn) [Compound 1-11] | < 10 | 10 to 100 | 10 to 100 | – | – | –
CCCNc1nc(Nc2ccc(C#N)cc2)ncc1C#CCCCNC(=O)[C@@H]1C[C@@H](O)CN1C(=O)/C=C/CN(C)C [Compound 7-68] | < 10 | < 10 | < 10 | – | – | –
CCCNc1nc(Nc2ccc3c(F)nn(C)c3c2)ncc1C#CCCCNC(=O)[C@H](C)N(C)C(=O)/C=C/CN(C)C [Compound 22-58] | – | – | – | < 10 | < 10 | < 10
CCCNc1nc(Nc2cccc(F)c2)ncc1C#C[C@@H]1CC[C@H](NC(=O)[C@H](C)N(C)C(=O)/C=C/CN(C)C)C1 [Compound 13-10] | < 10 | < 10 | < 10 | – | – | –
C=CC(=O)NCC(=O)Nc1cc(Cl)cc(NC(=O)c2cnc(NCCc3ccncc3)nc2NCCC)c1 [Compound 2-5] | < 10 | 10 to 100 | 10 to 100 | – | – | –
C[C@@H](C(=O)N[C@H]1CCC[C@@H](C#Cc2cnc(Nc3ccnc(F)c3)nc2N2CCOCC2)C1)N(C)C(=O)/C=C/CN(C)C [Compound 14-3] | < 10 | < 10 | < 10 | – | – | –
CCCNc1nc(Nc2ccc3ncccc3c2)ncc1C#CCCCNC(=O)[C@H](C)N(C)C(=O)/C=C/CN(C)C [Compound 22-2] | – | – | – | < 10 | < 10 | < 10
CCCNc1nc(Nc2ccc(C#N)cc2)ncc1C#CCCCNC(=O)CN(C)C(=O)/C=C/CN(C)C [Compound 7-9, (E)-N-(2-((5-(2-((4-Cyanophenyl)amino)-4-(propylamino)pyrimidin-5-yl)-4-pentyn-1-yl)amino)-2-oxoethyl)-4-(dimethylamino)-N-methyl-2-butenamide] | < 10 | < 10 | < 10 | – | – | –
COCCCNc1nc(Nc2ccc(F)nc2)ncc1C#CCCCNC(=O)[C@H](C)N(C)C(=O)/C=C/CN(C)C [Compound 10-30] | < 10 | < 10 | 10 to 100 | – | – | –
CCCNc1nc(Nc2ccc(C(N)=O)cc2)ncc1C(=O)Nc1cccc(NC(=O)[C@H](C)N(C)C(=O)/C=C/CN(CC)CC)c1 [Compound 4-8, (S,E)-2-((4-Carbamoylphenyl)amino)-N-(3-(2-(4-(diethylamino)-N-methyl-2-butenamido)propanamido)phenyl)-4-(propylamino)pyrimidine-5-carboxamide] | < 10 | < 10 | < 10 | – | – | –
CCCNc1nc(Nc2ccc(C#N)cc2)ncc1C#CCCCNC(=O)[C@@H]1C[C@H](O)CN1C(=O)/C=C/CN(C)C [Compound 7-69] | < 10 | < 10 | < 10 | – | – | –
CCCNc1nc(Nc2cccc(F)c2)ncc1C#CCCCNC(=O)[C@@H]1C[C@H](O)CN1C(=O)/C=C/CN(C)C [Compound 7-67] | < 10 | < 10 | < 10 | – | – | –
CCCNc1nc(Nc2ccc(C(N)=O)cc2)ncc1C(=O)Nc1cccc(NC(=O)[C@H](C)N(C)C(=O)/C=C/CBr)c1 [Compound 3-7, (S,E)-N-(3-(2-(4-bromo-N-methyl-2-butenamido)propanamido)phenyl)-2-((4-carbamoylphenyl)amino)-4-(propylamino)pyrimidine-5-carboxamide] | < 10 | 10 to 100 | 10 to 100 | – | – | –
